From publication PMC6015222, “Targeting Phosphopeptide Recognition by the Human BRCA1 Tandem BRCT Domain to Interrupt BRCA1-Dependent Signaling” (Cell Chemical Biology, 2018)

Key:
TOPBP1 BRCT 1/2 = biological target: T1, TOPBP1 BRCT 1/2 (Homo sapiens, UniProt Q92547); assay: Competitive MST selectivity: TOPBP1 1/2; assay type: binding
T1 construct: TOPBP1 BRCT 1/2 residues 1-290; 6x His (N); made in house; host or cells: E. coli BL21(DE3)
Description: (§1) Protein domains used in the assay were labeled with NT-647-NHS fluorescent dye using the Monolith NT™ Protein Labeling Kit (NanoTemper Technologies). Assays were carried out in 20mM Tris buffer, pH 7.4, with 200mM NaCl, 0.05% Tween-20 and 2mM DTT. For the direct binding assay, 10μl of labeled protein at a final concentration of 20nM was mixed with 10μl of test compound and incubated on ice for 10 min. For the competitive assay, 10μl of labeled protein at a final concentration of 20nM was mixed with 2μM cognate peptide substrate at the EC80 concentration determined by prior titration using a 16-point serial dilution by direct-binding MST. For both assays, samples prepared as above were centrifuged at 15000 rpm at 4°C for 10 min and 4μl of the supernatant was loaded into premium glass capillaries (NanoTemper Technologies). MST analysis was performed at MST power of 40% and LED power of 80%, at 22°C temperature using a Monolith NT.115 (NanoTemper Technologies). An initial “Capillary Scan” was performed to scan for fluorescence across the length of the capillary tray to determine the exact position of each capillary before the MST measurement was started. Test compounds were assayed at 16 different concentrations by serial dilution, and data were analysed using NanoTemper analysis software. Kd values were determined using “T-jump + Thermophoresis” settings. […]

cells = assay: Cellular effects of Bractoppin, summary over the cell assays; assay type: cell-based
[1] = biological target: T2, BRCA1 tBRCT / BACH1 unimolecular FRET biosensor (Homo sapiens, UniProt P38398); assay: Unimolecular FRET biosensor assay in HEK293 cells (sensitized emission, acceptor photobleaching); assay type: cell-based; conditions: 100 μM, 24 hr, 16 Gy
T2 construct: the BRCA1 tBRCT domain (aa 1643-1862); expressed in transfected cells
Description: HEK293 cells expressing the stably integrated FRET sensor in a tetracycline-inducible system were used. 3.5x10^5 cells/35mm dish were seeded in Matrigel coated plates and expression was induced using doxycycline (1μg/ml) for 48 h. Cells were incubated with compounds for 24 h in serum containing media at 100μM final concentration with 0.5% DMSO. Where indicated, mCherry-BRCA1 tBRCT constructs were transiently transfected in a 4.5:1 ratio of Fugene:DNA and incubated in serum-containing media for 24 h (Fugene HD transfection reagent, Promega). Two h after 16 Gy IR, cells were washed in 1x PBS (pH 7.4) and fixed in 4% PFA at room temperature (RT) for 10’. Cells were mounted with Mowiol (without anti-fade) before imaging. The following excitation and emission wavelengths were used: Ex 402nm / Em 457nm for Tag-BFP; Ex 483nm / Em 506nm for Tag-GFP2 and Ex 594nm / Em 610nm for mCherry. […] Images acquired as noted below were quantified using HCS studio 2.0 (Thermo Fisher Scientific) to define nuclear morphology and average nuclear intensities.
For sensitized emission FRET measurements, images were acquired using a Zeiss epifluorescence microscope with Apotome using a 40x oil objective. […] Corrections for the extent of spectral cross-talk were calculated and applied as follows ([Müller et al., 2013]). […]

TOPBP1 tBRCT 7/8 = biological target: T3, TOPBP1 tBRCT 7/8 (Homo sapiens, UniProt Q92547); assay: Competitive MST selectivity: TOPBP1 7/8; assay type: binding
T3 construct: TOPBP1 tBRCT 7/8 residues 1264–1493; made in house; host or cells: E. coli BL21(DE3*)
Description: as §1

TOPBP1 foci = assay: Radiation-induced TOPBP1 foci, U2OS cells; assay type: cell-based; conditions: 100 μM added 6 h after irradiation
BRCA1 tBRCT = biological target: T4, BRCA1 tBRCT (Homo sapiens, UniProt P38398); assay: Competitive MST: inhibition of BACH1 phosphopeptide binding to BRCA1 tBRCT; conditions: MST, BACH1 phosphopeptide vs BRCA1 tBRCT; mean ± SD of three experiments; NB, no binding
T4 construct: BRCA1 tBRCT residues 1646-1859; made in house; host or cells: E. coli BL21(DE3)
Description: Protein domains used in the assay were labeled with NT-647-NHS fluorescent dye using the Monolith NT™ Protein Labeling Kit (NanoTemper Technologies). Assays were carried out in 20mM Tris buffer, pH 7.4, with 200mM NaCl, 0.05% Tween-20 and 2mM DTT. For the direct binding assay, 10μl of labeled protein at a final concentration of 20nM was mixed with 10μl of test compound and incubated on ice for 10 min. For the competitive assay, 10μl of labeled protein at a final concentration of 20nM was mixed with 2μM cognate peptide substrate at the EC80 concentration determined by prior titration using a 16-point serial dilution by direct-binding MST. For both assays, samples prepared as above were centrifuged at 15000 rpm at 4°C for 10 min and 4μl of the supernatant was loaded into premium glass capillaries (NanoTemper Technologies). MST analysis was performed at MST power of 40% and LED power of 80%, at 22°C temperature using a Monolith NT.115 (NanoTemper Technologies). An initial “Capillary Scan” was performed to scan for fluorescence across the length of the capillary tray to determine the exact position of each capillary before the MST measurement was started. Test compounds were assayed at 16 different concentrations by serial dilution, and data were analysed using NanoTemper analysis software. Kd values were determined using “T-jump + Thermophoresis” settings. The change in thermophoresis between different experimental conditions was expressed as the change in the normalized fluorescence (ΔFnorm), which is defined as Fhot/Fcold (F-values correspond to average fluorescence values between defined areas in the curve under steady-state conditions under control (Fcold) or experimental (Fhot) conditions. Titration of the non-fluorescent ligand causes a gradual change in thermophoresis, which is plotted as ΔFnorm to yield a binding curve, which was then fitted to derive binding constants.

MCPH1 tBRCT 2/3 = biological target: T5, MCPH1 tBRCT 2/3 (Homo sapiens, UniProt Q8NEM0); assay: Competitive MST selectivity: MCPH1 tBRCT; assay type: binding
T5 construct: MCPH1 tBRCT 2/3 residues 640-835; 6x His (N); made in house; host or cells: E. coli BL21(DE3)
T5 sequence (Q8NEM0 640-835): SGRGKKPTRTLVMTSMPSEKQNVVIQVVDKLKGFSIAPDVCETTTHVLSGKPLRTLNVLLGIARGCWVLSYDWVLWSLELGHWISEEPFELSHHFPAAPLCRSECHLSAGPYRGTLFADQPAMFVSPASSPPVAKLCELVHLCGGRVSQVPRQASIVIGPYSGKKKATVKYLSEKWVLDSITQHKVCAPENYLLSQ
Description: as §1

- binding to fluorescently labeled TOPBP1 1/2 tBRCT domain (TOPBP1 BRCT 1/2): does not detectably bind
- binding to fluorescently labeled TOPBP1 7/8 tBRCT domain (TOPBP1 tBRCT 7/8): does not detectably bind
- IC50 (BRCA1 tBRCT): 74 nM
- binding to fluorescently labeled MCPH1 tBRCT domain (MCPH1 tBRCT 2/3): does not detectably bind
SMILES: O=C(c1ccc2nc(-c3ccccc3)[nH]c2c1)N1CCN(Cc2ccccc2F)CC1 [Bractoppin, (4-(2-fluorobenzyl)piperazin-1-yl) (2-phenyl-1H-benzo[d]imidazol-6-yl) methanone]
- concentration at which cellular effects are elicited (cells): 10 to 100 µM
- effect on FRET efficiency of the biosensor [1]: inhibits FRET
- effect on radiation-induced recruitment of TOPBP1 (TOPBP1 foci): little effect
